Parameters: species or system human
Conditions: in vivo
Excerpt: Method: 12 healthy male (20-50 yrs) were enrolled in a randomized and double blind crossover design of four treatments with a minimum of 1 week wash-out period between each treatment was applied.
In the present invention, only 2 treatments are object of investigation: green tea extract (control) and green tea extract+hesperitin 7-glucoside (intervention).
Each treatment was formulated to contain 1 g equivalent of Choladi green tea extract. Subjects in the intervention group received a mixture of 1 g of green tea extract and 100 mg of hesperitin-7-glucoside.
After ingestion, plasma was collected over 24 h. Plasma EGCG analyses were performed by HPLC coupled with an electrochemical detection.
EGCG bioavailability was calculated from plasma kinetics by measuring the Area Under its concentration-time Curve (AUC).

## COc1ccc([C@@H]2CC(=O)c3c(O)cc(O[C@@H]4O[C@H](CO)[C@@H](O)[C@H](O)[C@H]4O)cc3O2)cc1O [hesperitin 7-glucoside]
  absorption of EGCG when flavan-3-ols are co-administered: significantly enhanced

— patent publication US10722584B2, “Increasing the bioavailability of flavan-3-ols by polyphenols” (NESTEC S.A., priority 2012, dated 2020)
